# Patent US20090032411A1, “METHOD AND SYSTEM FOR DETECTING PHARMACOLOGICALLY ACTIVE SUBSTANCES BY MEASURING MEMBRANE CURRENTS WITH EXTRACELLULAR SENSORS” (Max-Planck-Gesellschaft zur Foerderung Der Wissenschaften …, priority 2006, published 2009)
# “Also recorded” adds a separate entry of the source.
# Tests used:
# Type in all cases: cell-based
# [1] = target: T1, ligand-gated ion channel 5-HT3A (Homo sapiens, UniProt P46098); test: FET recording of the extracellular (junction) voltage signal of HEK293 cells doubly transfected with 5-HT3A and Kv1.3, ligands of 5-HT3A; settings: for extracellular voltage signal in the cell-chip junction on application of agonist: agonist 100 μM, cells expressing both 5-HT3A and Kv1.3, FET recording; for effect on the serotonin-induced extracellular voltage signal: tropisetron 1 μM present before and during stimulation with 100 μM serotonin, doubly transfected cell
# T1 construct: host or cells: HEK293
# T1 sequence (P46098 24-478): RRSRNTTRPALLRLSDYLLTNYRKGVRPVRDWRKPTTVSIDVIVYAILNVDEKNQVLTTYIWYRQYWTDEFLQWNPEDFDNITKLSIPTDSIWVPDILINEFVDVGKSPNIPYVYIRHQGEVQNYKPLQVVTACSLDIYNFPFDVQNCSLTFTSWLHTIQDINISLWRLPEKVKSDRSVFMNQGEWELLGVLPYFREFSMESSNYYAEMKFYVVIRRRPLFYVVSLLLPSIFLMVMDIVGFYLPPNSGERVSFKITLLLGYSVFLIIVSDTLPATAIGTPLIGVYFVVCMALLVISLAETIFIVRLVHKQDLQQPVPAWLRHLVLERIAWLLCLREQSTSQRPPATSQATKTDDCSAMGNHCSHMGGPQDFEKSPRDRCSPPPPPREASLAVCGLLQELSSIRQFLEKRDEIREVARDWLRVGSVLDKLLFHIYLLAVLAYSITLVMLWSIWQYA
# Method: (§1) HEK293 cells were cultured in plastic dishes (Becton Dickinson, No. 353001), in Dulbecco's modified Eagle's medium (GIBCO, No. 21885-025), supplemented with 10% heat-inactivated fetal bovine serum. The cDNA of the human ligand-gated ion channel 5-HT3A was purchased from Invitrogen (Ultimate ORF clone collection, HORF01), and subcloned into the expression plasmid pcDNA3 (Invitrogen, No. V790-20), applying standard molecular biology methods. The construction of an expression plasmid for the voltage-gated potassium channel Kv1.3 was as described in J. Kupper: Functional expression of GFP-tagged Kv1.3 and Kv1.4 channels in HEK 293 cells. Eur. J. Neurosci. 10, 3908-12 (1998). The cells were stably transfected with one of the two expression plasmids using Geneticin (GIBCO, No. 11811-064), as the selection antibiotic (500 μg/ml). After generation of stable cell lines, the cells were transiently transfected with the other of the two expression plasmids together with the EGFP-C1 plasmid (BD Biosciences Clontech, No. 632317), which served as control for successful transfection. Transfections were done using the Effectene method (Qiagen, No. 301425), at 60-80% confluency.
# Silicon chips as described in M. Voelker, P. Fromherz: Signal transmission from individual mammalian nerve cell to field-effect transistor. Small 1, 206-210 (2005) with 128 Field Effect Transistors (FET) in two linear arrays and a culture chamber on top were cleaned, sterilized under UV-light and coated with 10 μg/ml fibronectin (Sigma, No. F2006). Cells were plated on these chips under normal culture conditions one day after transient transfection, and measurements were done one day after plating. Cells on transistor gates with the transiently expressed channels were identified by the green EGFP fluorescence.
# During experiments the cells were flushed permanently with standard extracellular solution, consisting of (in mM): KCl 5.4, NaCl 135, CaCl2 1.8, MgCl2 1 Glucose 10, Hepes 5 (pH adjusted to 7.4 with NaOH). The ligands serotonin, CPBG (agonists of 5-HT3A) tropisetron and margatoxin (antagonists of 5-HT3A and Kv1.3, respectively), were obtained from Sigma (No. H9523, C144, T104, M8278), and dissolved in extracellular solution.
# Ligand solutions were applied rapidly (ms range), with a double barrelled glass pipette (Theta-Tube), connected to a piezoelectric actuator (Burleigh, LSS-3100). Different ligand solutions were directed to the glass pipette by an eight-channel valve control system (ALA, BPS-8).
# During application of ligands, the voltage in the cleft between transfected cells and the chip surface was probed with the gates of Field Effect Transistors under the cells.
# [2] = target: T1, ligand-gated ion channel 5-HT3A; test: FET recording of junction voltage of HEK293 cells expressing only 5-HT3A
# Method: as §1, with “Transfections were done using the Effectene method (Qiagen, No. 301425), at 60-80% confluency.” left out
# (§2) Silicon chips as described in M. Voelker, P. Fromherz: Signal transmission from individual mammalian nerve cell to field-effect transistor. […] Cells on transistor gates with the transiently expressed channels were identified by the green EGFP fluorescence. […]
# [3] = target: T2, voltage-gated channel Kv1.3 (Homo sapiens, UniProt P22001); test: FET recording of junction voltage of HEK293 cells expressing only Kv1.3
# T2 construct: expressed in transfected cells; host or cells: HEK293
# Method: as §1, with “Transfections were done using the Effectene method (Qiagen, No. 301425), at 60-80% confluency.” left out
# as §2
# [4] = target: T3, voltage-gated potassium channel Kv1.3 (Homo sapiens, UniProt P22001); test: FET recording of the extracellular (junction) voltage signal of HEK293 cells doubly transfected with 5-HT3A and Kv1.3, blocker of Kv1.3
# T3 construct: expressed in transfected cells; host or cells: HEK293
# Method: as §1, with “Transfections were done using the Effectene method (Qiagen, No. 301425), at 60-80% confluency.” left out
# as §2
# T3 sequence (P22001 whole entry): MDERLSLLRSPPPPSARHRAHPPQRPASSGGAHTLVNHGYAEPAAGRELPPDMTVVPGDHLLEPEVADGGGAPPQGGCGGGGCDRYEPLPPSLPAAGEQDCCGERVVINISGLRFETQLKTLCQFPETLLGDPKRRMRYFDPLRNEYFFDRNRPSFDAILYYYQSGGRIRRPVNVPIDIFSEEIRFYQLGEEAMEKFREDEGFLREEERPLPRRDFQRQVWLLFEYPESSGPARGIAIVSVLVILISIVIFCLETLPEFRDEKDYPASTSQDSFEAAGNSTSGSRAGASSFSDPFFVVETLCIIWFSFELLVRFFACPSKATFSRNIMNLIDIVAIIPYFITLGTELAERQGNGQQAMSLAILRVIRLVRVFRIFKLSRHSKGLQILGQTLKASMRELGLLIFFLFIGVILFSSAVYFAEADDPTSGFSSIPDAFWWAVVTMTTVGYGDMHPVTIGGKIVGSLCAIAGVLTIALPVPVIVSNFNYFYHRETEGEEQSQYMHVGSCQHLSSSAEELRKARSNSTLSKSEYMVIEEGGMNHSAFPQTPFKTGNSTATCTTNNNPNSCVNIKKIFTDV
# T2 sequence (P22001 whole entry): as above
compound,measurement,setting,value
NC(N)=NC(N)=Nc1cccc(Cl)c1 [CPBG],extracellular voltage signal in the cell-chip junction on application of agonist,[1],triggered a biphasic voltage signal; also recorded: caused a biphasic voltage signal
NCCc1c[nH]c2ccc(O)cc12 [serotonin],voltage signal in the cell-chip junction upon stimulation with serotonin,[2],failed to cause a voltage signal
same,extracellular voltage signal in the cell-chip junction on application of agonist,[1],triggered a biphasic voltage signal; also recorded: Biphasic extracellular voltage signal; also recorded: caused a biphasic voltage signal
same,voltage signal in the cell-chip junction upon stimulation with serotonin,[3],failed to produce a signal
"margatoxin (TIINVKCTSPKQCLPPCKAQFGQSAGAKCMNGKCKCYPH; UniProt P40755 1-39, looked up)",effect on the serotonin-induced extracellular voltage signal,"[4]; 5 nM margatoxin present during 100 μM serotonin stimulation, doubly transfected cell",The signal was reduced; also recorded: blocked the signal
same,serotonin-triggered signal after removal of margatoxin (reversibility),"[4]; same cell, after removal of 5 nM margatoxin",A biphasic voltage signal was recovered
CN1[C@@H]2CC[C@H]1C[C@@H](OC(=O)c1c[nH]c3ccccc13)C2 [tropisetron],effect on the serotonin-induced extracellular voltage signal,[1],blocked the signal
same,effect on the serotonin-induced extracellular voltage signal,[1]; listed as Tropisetron,The signal was lost
